Patent publication US10722582B2, “Targeted antimicrobial photodynamic therapy” (Purdue Research Foundation, priority 2018, dated 2020)

Columns and labels:
S. aureus = assay: aPDI with 405-nm LED bar, summary over strains; format: cell-based, Staphylococcus aureus; details: 10 seconds, 405-nm light-emitting diode bar (99 mW/cm^2), fluence about 1 J/cm^2
Protocol: (§1) Antibacterial activity assay general protocol: Used LED light to test conditions. Bacteria were grown in TS broth, followed by 3 mM bipyridine in TS broth until log phase. Bacteria were then diluted with PBS, to OD 0.1 (˜10^) and then to ˜10^7 cfu/mL. 100 uL of bacteria were placed in 96 well plates with the appropriate GaPpIX concentration. 2× serial dilutions were then done to obtain other GaPpIX concentrations. Each concentration was done in triplicate. Bacteria were left incubating and irradiating for different amount of times at different light powers or left in the dark. 10× Serial dilutions were done and bacteria were plated for colony counting using the drop-plate technique. Colonies were counted after 24 hours. As reported herein, a 3-log reduction equals measurable antimicrobial action; a 6-log reduction equals total eradication.

[1] = system: S. aureus and clinical isolates of MRSA; assay: aPDI with CFL irradiation, summary over strains; format: cell-based, Staphylococcus aureus; details: 15 minutes of irradiation, compact fluorescence lightbulb (λmax 406 nm, 12.4 mW/cm^2)
Protocol: A 20-W compact fluorescent lightbulb (CFL; Sunlite SL20/BLB) housed in an ellipsoidal reflector dome was used for aPDI, at an emission wavelength at 406 nm and a mean power density of 12.4 mW/cm^2 (after applying a 408-nm shortpass filter). Antimicrobial assays were performed on planktonic bacteria at 10^7 cfu/mL with variable exposure times to CFL irradiation, followed by plating on agar and incubation at 37° C. In a typical experiment, bacterial suspensions were transferred into 96-well plates then treated with 100-μL aliquots of Ga-PpIX or PpIX solution, with final concentrations ranging from 320 to 0.31 μg/mL, followed immediately with CFL irradiation for 5 to 15 minutes. The irradiated bacteria were plated onto agar in serial tenfold dilutions (10^7-10^1 cfu/mL); controls included one set of wells without photosensitizer, and one set of wells with photosensitizer but without 15 min irradiation, prior to plating (dark toxicity). Bacterial counts were determined by the drop-plate method using TS-agar plates, and reported in colony-forming units per milliliter (cfu/mL).

HEK cells = assay: Cytotoxicity against HEK cells; details: read-out: IC50 (cytotoxicity)
MRSA385 = assay: Antibacterial activity assay with LED light; format: cell-based, Staphylococcus aureus
Protocol: as §1
(§2) Stock solution preparation (AVM-3-36, 10 nm AgNP). Prepared a solution of (AVM-2-273) GaPpIX-apoHb 1 mg/mL in MP H2O, deaerated. Took 10 mL of 10 nm AgNPs, centrifuged at 900 G for 5 min (Beckman, 3100 RPM), took supernantant and added 200 uL of GaPpIXHb. After overnight, centrifuged 3000 RPM g for 5 minutes (Beckman). Took supernantant and centrifuged using a 100 K CentriCon tube at 4000 RPM for 5 minutes, 3×. Added 15 mM borate buffer to NPs. Based on calibration curve, the stock solution is 1.94 ug/mL AgNP, so stock: 79 μg/mL AgNP, 10.37 μg/mL GaPpIXHb, 0.446 μg/mL GaPpIX (refer to AVM-2-293A and AVM-3-3).
(§3) The following antibacterial activity measurements were assayed in the presence of AgNP.

MRSA387 = assay: Antibacterial activity assay with LED light; format: cell-based, Staphylococcus aureus
Protocol: as §1, §2, §3

MRSA386 = assay: Antibacterial activity assay with LED light; format: cell-based, Staphylococcus aureus
Protocol: as §1, §2, §3

MRSA383 = assay: Antibacterial activity assay with LED light; format: cell-based, Staphylococcus aureus
Protocol: as §1, §2, §3

[2] = Rish et al. 2007; cited from earlier work

Substance: Ga(III)-protoporphyrin [Ga-PpIX (1)]
- GaPpIX concentration showing aPDI efficacy (S. aureus): 0.06 to 0.12 µM
- GaPpIX concentration for 3-log reduction by aPDI [1]: 0.5-4.5 μM
- IC50 (HEK cells): > 10 µM
- concentration for 3-log reduction (MRSA385): 89 nM
- concentration for 6-log reduction (MRSA385): 470 nM
- concentration for 3-log reduction (MRSA387): 59 nM
- concentration for 6-log reduction (MRSA387): 1900 nM
- concentration for 3-log reduction (MRSA386): 118 nM
- concentration for 6-log reduction (MRSA386): 235 nM
- concentration for 3-log reduction (MRSA383): 59 nM
- concentration for 6-log reduction (MRSA383): 118 nM
- molar extinction coefficient, previous reports [2]: 250000 M⁻¹ cm⁻¹
